Test results reported in patent USRE48461E1, “Modulation of androgen receptor expression” (Ionis Pharmaceuticals, Inc., priority 2012, dated 2021).

Assays:
Format in all cases: cell-based, human
[1] = test system: full-length AR; experiment: Western blot of full-length AR in MDV3100-resistant C4-2B cells; details: C4-2B MR cells (Example 16)
Procedure: (§1) ISIS 549372, ISIS 549434, and ISIS 554221 at 1 μM concentration of antisense oligonucleotide were each added to the culture media at 1 μM concentration for free uptake by the cells. After a treatment period of 2 days, cells were harvested in RIPA buffer containing protease inhibitors. The presence of bands for full-length AR, as well as the variant form, AR-V7, was detected by western blot using AR antibody (N-20, Santa Cruz).
(§2) Western analysis of full-length AR, as well as the AR-V7 variant, was also conducted in a manner similar to the assay described above.

[2] = test system: AR-V7; experiment: Western blot of AR-V7 in MDV3100-resistant C4-2B cells; details: C4-2B MR cells (Example 16)
Procedure: as §1, §2

[3] = test system: LMR20 cells; experiment: Proliferation of MDV3100-resistant LMR20 cells (MTT; with R1881 or DHT); details: 5 days
Procedure: LMR20 cells were plated at 1,500 cells per well in phenol red-free medium with charcoal-stripped fetal bovine serum (CSS), to remove any androgens from the medium (Life Technologies). […] The synthetic androgen agonist, R1881, (Takeda, A. N. et al., Mol. Pharmacol. 2007. 71: 473-82) was added on day 1 at 1 nM dose to a set of cells also treated with each of the antisense oligonucleotides. DHT was added on day 1 at a dose of 10 nM to another set of cells also treated with each of the antisense oligonucleotides. […] After a treatment period of 5 days, the proliferative ability of the cancer cells was measured by the standard MTT assay. Results are presented in Table 42 as percent inhibition of proliferation, relative to non-treated cells.

[4] = test system: AR mRNA; experiment: AR mRNA levels in LMR20 cells (with/without DHT or R1881); details: with or without DHT/R1881
Procedure: LMR20 cells were plated at 1,500 cells per well in phenol red-free medium with CSS.

[5] = test system: C4-2B cells; experiment: C4-2B cell proliferation, ASO in combination with MDV3100 (Example 19); details: 6 days
Procedure: C4-2B cells were plated at 1,500 cells per well. […] ISIS 347526 was included as a negative control. […] After a treatment period of 6 days, the proliferative capacity of the cancer cells was measured with CellTiter 96® AQueous One Solution Cell Proliferation kit (Promega), following the manufacturer's instructions. Results are presented in Table 46 as percent inhibition of proliferation, relative to non-treated cells. Treatment of the cells with ISIS 549372 or ISIS 549458 reduced proliferation of the cells more extensively than treatment with ISIS 554221.

[6] = test system: AR full-length mRNA; experiment: AR full-length mRNA in CWR22-RV1 cells (RNAiMax, RTS3559); details: 6 days
Procedure: (§3) CWR22-RV1 cells were plated and transfected using RNAiMax reagent (Life Technologies) with ISIS oligonucleotides at 1.7 nM, 5.0 nM, 16.7 nM, or 50 nM concentrations. ISIS 347526 was included as a negative control. After a treatment period of 6 days, the target reduction and proliferative capacity of the cancer cells was measured.
(§4) Antisense inhibition of AR full-length mRNA was measured with the RTS3559 primer probe set. The results are presented in Table 63 as percent inhibition relative to non-treated cells. The reduction in V7 splice variant of the AR mRNA was also measured by RT-PCR using SYBR Green staining (Hu, R. et al., Cancer Res. 2009. 69: 16-22). The results are presented in Table 64, as percent reduction, relative to non-treated cells. Cell proliferation was measured with CellTiter 96® AQueous One Solution Cell Proliferation kit (Promega), following the manufacturer's instructions. Results are presented in Table 65 as percent inhibition of proliferation, relative to non-treated cells.

[7] = test system: V7 splice variant of the AR mRNA; experiment: AR V7 splice variant mRNA in CWR22-RV1 cells (RT-PCR SYBR Green); details: RNAiMax, 6 days
Procedure: as §3, §4

[8] = test system: CWR22-RV1 cells; experiment: CWR22-RV1 cell proliferation (CellTiter 96); details: RNAiMax, 6 days
Procedure: as §3, §4

[9] = test system: AR mRNA; experiment: AR mRNA in C4-2B cells by free uptake (hAR_LTS00943); details: free uptake, 24 hrs
Procedure: (§5) Cells were plated at a concentration of 1,000 cells/well in 96-well plates to measure cell proliferation, and at 4,000 cells/well to measure target reduction. ISIS 549458, ISIS 549372, ISIS 549434, and ISIS 554221 were added individually at 0.04 μM, 0.20 μM, 1.00 μM, or 5.00 μM. After an incubation period of 24 hrs, mRNA levels were measured using hAR_LTS00943.

[10] = test system: C4-2B cells; experiment: C4-2B cell proliferation by free uptake (MTT); details: day 6
Procedure: as §5
On day 6, cells plated for measuring proliferation were incubated with MTT reagent until the development of color. Color intensity was measured using a spectrophotometer at 490 nm.

## ACCAAGTTTCTTCAGC (LNA gapmer, phosphorothioate backbone, further chemistry not given here) [ISIS 554221, 3-10-3 LNA gapmer, phosphorothioate backbone, targeted to exon 4 of AR; benchmark, reference compound]
[1]
  levels of full-length AR (Western analysis): reduced levels of full-length AR less extensively compared to ISIS 549372
[2]
  levels of AR-V7 (Western analysis): did not reduce levels of AR-V7
[3]; CSS + DHT, ASO 0.04 μM
  Percent inhibition of LMR20 cell proliferation: 0%
[3]; CSS + DHT, ASO 0.20 μM
  Percent inhibition of LMR20 cell proliferation: 0%
[3]; CSS + DHT, ASO 1.0 μM
  Percent inhibition of LMR20 cell proliferation: 10%
[3]; CSS + DHT, ASO 5.0 μM
  Percent inhibition of LMR20 cell proliferation: 36%
[3]; CSS + R1881, ASO 0.04 μM
  Percent inhibition of LMR20 cell proliferation: 1%
[3]; CSS + R1881, ASO 0.20 μM
  Percent inhibition of LMR20 cell proliferation: 10%
[3]; CSS + R1881, ASO 1.0 μM
  Percent inhibition of LMR20 cell proliferation: 19%
[3]; CSS + R1881, ASO 5.0 μM
  Percent inhibition of LMR20 cell proliferation: 54%
[3]; CSS, ASO 0.04 μM
  Percent inhibition of LMR20 cell proliferation: 0%
[3]; CSS, ASO 0.20 μM
  Percent inhibition of LMR20 cell proliferation: 1%
[3]; CSS, ASO 1.0 μM
  Percent inhibition of LMR20 cell proliferation: 2%
[3]; CSS, ASO 5.0 μM
  Percent inhibition of LMR20 cell proliferation: 16%
[4]
  AR mRNA levels in LMR20 cells: did not alter AR mRNA levels
[5]; 0.1 μM ASO + MDV3100 1 μM
  Percent inhibition of C4-2B cell proliferation with 0.1 μM ASO: 59%
[5]; 0.1 μM ASO + MDV3100 […]
  Percent inhibition of C4-2B cell proliferation with 0.1 μM ASO: 29%
[5]; 0.1 μM ASO, MDV3100 0 μM
  Percent inhibition of C4-2B cell proliferation with 0.1 μM ASO: 9%
[5]; 0.2 μM ASO + MDV3100 1 μM
  Percent inhibition of C4-2B cell proliferation with 0.2 μM ASO: 67%
[5]; 0.2 μM ASO + MDV3100 […]
  Percent inhibition of C4-2B cell proliferation with 0.2 μM ASO: 45%
[5]; 0.2 μM ASO, MDV3100 0 μM
  Percent inhibition of C4-2B cell proliferation with 0.2 μM ASO: 23%
[5]; C4-2B cells, ASO alone, Table 46 (0.1 μM ASO)
  reduced cell proliferation, ASO alone: 23%
[6]; dose 5.0 nM
  Percent inhibition of AR full-length mRNA: 41%
[6]; dose 16.7 nM
  Percent inhibition of AR full-length mRNA: 67%
[6]; dose 50.0 nM
  Percent inhibition of AR full-length mRNA: 72%
[7]; dose 5.0 nM
  Percent inhibition of AR splice variant, V7: 1%
[7]; dose 16.7 nM
  Percent inhibition of AR splice variant, V7: 7%
[7]; dose 50.0 nM
  Percent inhibition of AR splice variant, V7: 35%
[8]; dose 5.0 nM
  Percent inhibition of cell proliferation: 11%
[8]; dose 16.7 nM
  Percent inhibition of cell proliferation: 27%
[8]; dose 50.0 nM
  Percent inhibition of cell proliferation: 47%
[9]; dose 0.04 μM
  Percent inhibition of AR full-length mRNA: 0%
[9]; dose 0.20 μM
  Percent inhibition of AR full-length mRNA: 0%
[9]; dose 1.00 μM
  Percent inhibition of AR full-length mRNA: 0%
[9]; dose 5.00 μM
  Percent inhibition of AR full-length mRNA: 0%
[10]; dose 0.04 μM
  Percent inhibition of cell proliferation: 0%
[10]; dose 0.20 μM
  Percent inhibition of cell proliferation: 10%
[10]; dose 1.00 μM
  Percent inhibition of cell proliferation: 21%
[10]; dose 5.00 μM
  Percent inhibition of cell proliferation: 30%
